TGI and GI50 data for 37 compounds are collected here from PubChem BioAssay (NCI).

Values joined by “and” are separate entries in the source; they are usually repeats but may differ in a detail not shown here. Equal values may be shown once.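 Growth conditions: 96-well plates. Treatment: test compound, 48 hours, 5 concentrations. Analysis: linear interpolation between bracketing concentrations; unreached endpoints set to highest concentration. Abbreviation: GI50, concentration required for 50% inhibition of growth. TGI: concentration producing complete growth inhibition.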 Where only a bound is given, the exact number is not on record here.

Among the test systems are KM20L2 colon; DMS 273 small cell lung; LXFL 529 NSCLC; HOP-18 NSCLC; XF 498 CNS; MDA-N; DMS 114 small cell lung; SNB-78 CNS; RXF-631 renal; P388/ADR leukemia; P388 leukemia; SN12K1 renal.
What all share (assay): NCI tumour cell line growth inhibition, 48 h

As for `CC(N)Cc1ccc(Cl)cc1` (stereo unspecified), the TGI with KM20L2 colon, in the assay with DMS 273 small cell lung, with LXFL 529 NSCLC, in the assay with HOP-18 NSCLC and with XF 498 CNS was greater than 100 µM throughout.

In the assay on MDA-N, `CCN(CC)CCC(=O)OC1C(C)=CC(C)C(=O)CC(C(C)CC2CCC(O)C(OC)C2)OC(=O)C2CCCCN2C(=O)C(=O)[C@@]2(O)OC(CCC2C)CC(OC)\C(C)=C/C=C/C=C/C(C)CC(C)C(=O)C1OC` (stereo partly specified) gave a TGI of 21.7 µM.

With `O=C(Nc1cc(Cl)ccc1Cl)c1cc2cccc(Br)c2oc1=O`, the TGI was greater than 100 µM in the assay on KM20L2 colon; greater than 100 µM in the assay on DMS 273 small cell lung; greater than 100 µM in the assay with DMS 114 small cell lung; greater than 100 µM with HOP-18 NSCLC; 72.6 µM in the assay with XF 498 CNS.

On to `COc1ccc2c3c(c(C(=O)O)oc13)CCC2`, for which the TGI in the assay on SNB-78 CNS, with DMS 273 small cell lung, in the assay on DMS 114 small cell lung, in the assay on LXFL 529 NSCLC and in the assay with XF 498 CNS was greater than 100 µM throughout.

As for `Cc1cc2c(c3nocc13)C(=O)c1ccccc1C2=O`, the TGI in the assay with KM20L2 colon, in the assay with DMS 273 small cell lung, in the assay with DMS 114 small cell lung, with RXF-631 renal, with LXFL 529 NSCLC and in the assay with HOP-18 NSCLC was greater than 100 µM in each case.

Regarding `O=C1NC(=O)[C@@]2(CC[C@@H](O)C2)c2ccncc21`, the TGI in the assay on MDA-N is greater than 100 µM.

For `O=C1C=C2C=CC3CC2(O1)C1CCCCN31` (stereo unspecified), in the assay on MDA-N, the GI50 was 16.8 µM and 18.8 µM and 36 µM; the TGI was greater than 100 µM.

Compound `O=C(O)C(Br)C(Br)C(=O)O` (stereo unspecified) came in with a TGI in the assay on MDA-N greater than 100 µM.

`O=C1NC(O)c2ccccc2O1` (stereo unspecified): the TGI with MDA-N is greater than 100 µM.

`Nc1ncn(C2OC(COP(=O)(O)O)C(O)C2O)c(=O)n1` (stereo unspecified): the TGI in the assay with MDA-N was greater than 100 µM.

As to `CN(C)CCNC(=O)c1cccc2nc3ccc4cccnc4c3nc12`, the TGI is 11.3 µM in the assay on SNB-78 CNS; 1.4 µM in the assay on DMS 273 small cell lung; 2.12 µM with DMS 114 small cell lung; 11.8 µM in the assay with RXF-631 renal; 6.66 µM with HOP-18 NSCLC.

As for `COC1=CC(=O)C(Br)=CC1=O`, the TGI with KM20L2 colon was greater than 100 µM; in the assay on DMS 114 small cell lung, 35.5 µM; with RXF-631 renal it was 99.2 µM; with LXFL 529 NSCLC, 31.2 µM; with XF 498 CNS it was 31.5 µM.

Turning to `O=C1NC(=O)C(=Cc2c3ccccc3cc3ccccc23)C(=O)N1`, the TGI in the assay on KM20L2 colon, in the assay with DMS 273 small cell lung, in the assay with RXF-631 renal, in the assay with LXFL 529 NSCLC, with HOP-18 NSCLC and in the assay with XF 498 CNS was greater than 100 µM throughout.

With `CC(C)=O.O=C([O-])C(F)(F)F.O=C([O-])C(F)(F)F.O=C([O-])C(F)(F)F.O=C([O-])C(F)(F)F.[Rh+2].[Rh+2]`, the GI50 in the assay with SNB-78 CNS is 49.4 µM; in the assay on KM20L2 colon, greater than 100 µM; in the assay with DMS 273 small cell lung, 94.1 µM; in the assay with DMS 114 small cell lung, 26.8 µM; in the assay with LXFL 529 NSCLC it was 31 µM; with XF 498 CNS, 58 µM. Further, the TGI with SNB-78 CNS is greater than 100 µM; with KM20L2 colon, greater than 100 µM; in the assay on DMS 273 small cell lung it was greater than 100 µM; in the assay on DMS 114 small cell lung it was 90.3 µM; with LXFL 529 NSCLC, greater than 100 µM; in the assay on XF 498 CNS, greater than 100 µM.

On to `C#CCN(N=O)C(=O)NCCCCC(NC(=O)OCc1ccccc1)C(=O)OCc1ccccc1` (stereo unspecified), for which the TGI is greater than 100 µM with SNB-78 CNS; greater than 100 µM with KM20L2 colon; greater than 100 µM with DMS 273 small cell lung; 41.4 µM with LXFL 529 NSCLC; greater than 100 µM in the assay with HOP-18 NSCLC; 74.1 µM in the assay with XF 498 CNS.

On to `COC1CC(C)C(OC)c2cc(O)cc(c2O)NC(=O)/C(C)=C/C=C\C(C)C(OC(N)=O)/C(C)=C\C(C)C1OC` (stereo unspecified), for which the TGI was 18.3 µM in the assay with SNB-78 CNS; 18.2 µM with P388/ADR leukemia; 13.3 µM and 6.75 µM in the assay on MDA-N; 0.905 µM and 6.33 µM in the assay on DMS 273 small cell lung; 23.2 µM and 5.28 µM in the assay on DMS 114 small cell lung; 7.64 µM with LXFL 529 NSCLC. In the assay with HOP-18 NSCLC, the TGI amounted to 16.5 µM. The GI50 was 0.21 µM in the assay with KM20L2 colon and 0.202 µM in the assay with DMS 114 small cell lung.

As for `O=C(O)/C=C/c1ccc[c]([Sb](=[O])([OH])[OH])c1`, in the assay with MDA-N, the GI50 was greater than 100 µM and the TGI was greater than 100 µM.

For `Cc1cc(C)nc(NS(=O)(=O)c2ccc(Nc3c4ccccc4nc4c(C(=O)Nc5ccc(S(=O)(=O)Nc6cc(C)on6)cc5)ccc(Cl)c34)cc2)n1`, the TGI in the assay with SNB-78 CNS is greater than 100 µM; in the assay with KM20L2 colon, 35.4 µM; in the assay with RXF-631 renal, 64.6 µM; with LXFL 529 NSCLC, 42.4 µM; in the assay with XF 498 CNS it was 36.2 µM.

Compound `CCNc1cc2oc(=O)cc(C(F)(F)F)c2cc1C` displayed a TGI with MDA-N greater than 100 µM.

In the case of `S=c1nc(C(c2ccccc2)c2ccccc2)[nH][nH]1`, the TGI in the assay on KM20L2 colon, in the assay with DMS 273 small cell lung, in the assay on DMS 114 small cell lung, in the assay on RXF-631 renal and with XF 498 CNS was greater than 100 µM throughout.

Regarding `Cc1c(NC(=O)CCl)c(=O)oc2c(C)c3occc(=O)c3cc12`, in the assay with MDA-N, the TGI is 31 µM.

For the compound `COc1cccc2c1C(=O)c1c(O)c3c(c(O)c1C2=O)C[C@@](O)(C(C)=O)C[C@@H]3OC1CC([N+]([O-])(Cc2ccccc2)Cc2ccccc2)C(O)C(C)O1` (stereo partly specified), the TGI in the assay with KM20L2 colon was 2.92 µM; with DMS 114 small cell lung, 2.64 µM; with RXF-631 renal, 2.93 µM; in the assay with LXFL 529 NSCLC, 2.31 µM; in the assay on HOP-18 NSCLC, 3.55 µM; in the assay on XF 498 CNS it was 2.63 µM.

Consider `O=c1/c(=C/c2c(O)ccc3ccccc23)sc2nc3ccccc3n12`, for which the TGI in the assay on SNB-78 CNS, in the assay with KM20L2 colon, in the assay on DMS 273 small cell lung, with DMS 114 small cell lung, with RXF-631 renal and in the assay with LXFL 529 NSCLC was greater than 100 µM in each case. Moreover, the TGI with HOP-18 NSCLC and in the assay on XF 498 CNS was greater than 100 µM throughout.

As to `Cc1cc2c(cc1C)[n+](=O)c(C(=O)/C=C/c1ccc3c(c1)OCO3)c(C)n2[O-]`, the TGI in the assay on SNB-78 CNS was greater than 100 µM; in the assay with MDA-N, greater than 100 µM; with KM20L2 colon, greater than 100 µM; in the assay with DMS 273 small cell lung, greater than 100 µM; with DMS 114 small cell lung it was greater than 84.5 µM; with RXF-631 renal it was greater than 91.3 µM. The results for the TGI in the assay on HOP-18 NSCLC and in the assay with XF 498 CNS were greater than 100 µM and 54.9 µM, respectively.

Turning to `CC(CN1CC(=O)NC(=O)C1)N1CC(=O)NC(=O)C1` (stereo unspecified), the TGI in the assay on SNB-78 CNS, with P388/ADR leukemia, with MDA-N, in the assay with P388 leukemia, with SN12K1 renal and with KM20L2 colon was greater than 750 µM in each case. Further, the TGI in the assay with DMS 273 small cell lung is greater than 750 µM; in the assay with DMS 114 small cell lung, 409 µM; in the assay on HOP-18 NSCLC it was greater than 511 µM; in the assay on XF 498 CNS, greater than 690 µM. Moreover, in the assay on SN12K1 renal, the GI50 is 67.1 µM.

Regarding `O=C1C=CC(=O)C2C1Cc1ccccc1C2c1ccccc1` (stereo unspecified), the TGI is greater than 100 µM in the assay on KM20L2 colon; greater than 100 µM in the assay on DMS 273 small cell lung; 42.3 µM in the assay on DMS 114 small cell lung; 31.1 µM in the assay on LXFL 529 NSCLC; greater than 100 µM in the assay on HOP-18 NSCLC.

With `CCC[CH2][Sn]([CH2]CCC)([CH2]CCC)[O]C(=O)C(OC(C)=O)c1ccccc1` (stereo unspecified), in the assay with KM20L2 colon, the GI50 was 0.0801 µM and the TGI came out at 0.217 µM.

`Cn1cnc([N+](=O)[O-])c1Sc1nnnn1C`: the TGI with SNB-78 CNS stood at 30.2 µM; in the assay with DMS 273 small cell lung, 36.1 µM; in the assay on DMS 114 small cell lung, 32.2 µM; in the assay on LXFL 529 NSCLC, 24.4 µM; with HOP-18 NSCLC, 21.5 µM; in the assay on XF 498 CNS, 30 µM.

Compound `Cc1cn(CCC(N)C(=O)O)c(=O)[nH]c1=O` (stereo unspecified) gave a TGI with MDA-N greater than 100 µM.

`CSC(=Nc1ccccc1Cl)NC(=O)c1ccc(Br)cc1`: the TGI was 88.6 µM with SNB-78 CNS; greater than 100 µM with KM20L2 colon; greater than 100 µM with DMS 114 small cell lung; greater than 100 µM in the assay with LXFL 529 NSCLC; 94.1 µM in the assay with HOP-18 NSCLC; greater than 100 µM with XF 498 CNS.

For the compound `NCCOCn1cc(Cc2cccc(OCc3ccccc3)c2)c(=O)[nH]c1=O`, the TGI in the assay with SNB-78 CNS, with KM20L2 colon, with DMS 273 small cell lung, in the assay on DMS 114 small cell lung, in the assay with LXFL 529 NSCLC and with HOP-18 NSCLC was greater than 100 µM each time.

Turning to `Cc1ccc(NC(=O)C(=O)C(C(=O)c2ccc3ccccc3c2)C2OC(=O)c3ccccc32)c(C)c1` (stereo unspecified), the TGI with SNB-78 CNS was found to be 72.6 µM; with KM20L2 colon it was 56 µM; in the assay on DMS 114 small cell lung, 31.7 µM; in the assay with RXF-631 renal, 20.6 µM; in the assay with LXFL 529 NSCLC it was 20.4 µM; in the assay with HOP-18 NSCLC it was 29.5 µM. In addition, in the assay with XF 498 CNS, the TGI worked out at 10.7 µM.

`Cc1c(N)nc([C@H](CC(N)=O)NC[C@H](N)C(N)=O)nc1C(=O)N[C@H](C(=O)N[C@H](C)[C@@H](O)CC(=O)N[C@H](C(=O)NC(O[C@@H]1O[C@@H](C)[C@@H](N)[C@@H](O)[C@H]1O)C(O)c1nc(-c2nc(C(=O)NCCCCN)cs2)cs1)[C@@H](C)O)[C@@H](O[C@@H]1O[C@@H](CO)[C@@H](O)[C@H](O)[C@@H]1O[C@H]1O[C@H](CO)[C@@H](O)[C@H](OC(N)=O)[C@@H]1O)c1c[nH]cn1` (stereo partly specified) had a TGI in the assay with MDA-N greater than 50 µM.

`O=C(O)C1CCN(Cc2oc(CO)cc(=O)c2O)C1` (stereo unspecified) showed a TGI in the assay with MDA-N greater than 100 µM.

With `COC(NC(N)=O)C(=O)O` (stereo unspecified), the TGI with MDA-N was greater than 100 µM.

On to `O=C(O)CNc1ccc(Cl)c(Cl)c1`, for which the TGI in the assay on MDA-N was 73 µM.

Consider `O=C1OC(c2ccccc2)(c2ccccc2)c2ccc3ccc(F)cc3c21`, for which the TGI in the assay with KM20L2 colon, in the assay on DMS 273 small cell lung, with DMS 114 small cell lung, in the assay with RXF-631 renal, in the assay on LXFL 529 NSCLC and with XF 498 CNS was greater than 100 µM throughout.
